Key:
gel matrix = experiment: Gel matrix contraction in a culture system; assay type: cell-based
elastin = experiment: Gene expression in BATs by quantitative RT-PCR; assay type: cell-based, human
Protocol: (§1) Primary human tendon internal fibroblasts (HTIFs) were isolated from discarded human tendon tissue as described previously (Banes et al., J. Ortho Res., 6, 73-82, 1988). HTIFs from passage 2 to 4 were used in this study. BATs™ were fabricated at a cell density of 2 million cells/ml collagen gel suspension (Vitrogen). Cells were incubated at 37° C. for 24 h before addition of 100 pM IL-1β and inhibitors. BAT™ images were recorded with a scanner and automated imaging software, ScanFlex™ (Flexcell International Corp.). Medium was refreshed every 24 h. On day 5, BATs™ were collected, total RNA extracted with an RNeasy mini kit (QIAGen), cDNA synthesized with SuperScriptII (Invitrogen) and quantitative PCR carried out using a quantitative PCR kit from Ambion. The PCR products were separated on 2% agarose gels and the bands were quantitated in Photoshop. The elasticity of BATs™ was tested on day 5. BATs™ were subjected to a maximum stretch (20% elongation, 1 Hz for 1 h) and the BAT images were recorded for 24 h after stretch.

[1] = test system: human tendon internal fibroblast (HTIF)-populated bioartificial tendons (BATs™); experiment: Contraction of HTIF-populated BATs (scanner imaging); assay type: cell-based; conditions: 100 pM IL-1β; 24 h post addition
Protocol: as §1

[2] = test system: human tendon internal fibroblast (HTIF)-populated bioartificial tendons (BATs™); experiment: Elasticity of BATs by length recovery after maximum stretch; assay type: cell-based; conditions: 100 pM IL-1β
Source text: In order to find a better therapeutic method for tendon/ligament repair and/or replacement, several in vitro models for engineered tendon have been developed recently (Awad et al., J. Biomed. Mater Res., 51(2), 233-240, 2000). One of them is a BioArtificial Tendon (BAT™) model system utilizing tenocyte-populated molded collagen gels (Awad et al., J. Biomed. Mater Res., 51(2), 233-240, 2000). This 3D BAT™ system allows the testing of tenocyte responses to drugs, cytokines and mechanical loading but is too weak to replace conventional grafts materials. In an attempt to modulate the material properties of the cell-gel composite, the influence of IL-1β on the elasticity of human tendon internal fibroblast (HTIF)-populated bioartificial tendons (BATs™) was investigated. IL-1β has been reported to increase the expression of matrix metalloproteinases (MMPs) and elastin. It was hypothesized that IL-1β might increase the elasticity of BATs™ by up-regulating the expression of elastin and down-regulating matrix protein (Collagen I) expression. Gene expression was quantified with quantitative RT-PCR. The elasticity of BATs™ was determined by length recovery after stretch. The influence of IL-1β on the actin cytoskeleton and integrin attachment to matrix in BATs™ was tested +/− cytochalasin D or GRGDTP, respectively.
as §1, with “BATs™ were fabricated at a cell density of 2 million cells/ml collagen gel suspension (Vitrogen). Cells were incubated at 37° C. for 24 h before addition of 100 pM IL-1β and inhibitors.” left out, “Medium was refreshed every 24 h.” left out, “The elasticity of BATs™ was tested on day 5.” left out

Collagen I = experiment: Gene expression in BATs by quantitative RT-PCR; assay type: cell-based, human; conditions: 100 pM IL-1β, day 5
Protocol: as §1

MMPs 1, 2, 3 = experiment: Gene expression in BATs by quantitative RT-PCR; assay type: cell-based, human; conditions: 100 pM IL-1β, day 5
Protocol: as §1

[3] = test system: human tendon internal fibroblasts (HTIFs); experiment: Young's modulus of HTIFs by micropipette aspiration; assay type: cell-based; conditions: 100 pM IL-1β, day 5
Protocol: (§2) Primary HTIFs were isolated after surgery from discarded human tendon tissue as described previously (Banes et al., J. Ortho Res., 6, 73-82, 1988). HTIFs from passage 2 to 4 were used in this study. HTIFs were allowed to attach and spread for 24 h before addition of 100 pM IL-1β. Medium was refreshed every 24 h. On day 5, cells were collected for cell modulus measurement and gene expression analysis. Young's modulus of HTIFs was measured by aspirating a cell into the bore of a calibrated micropipette with a calibrated vacuum source. The cell-aspiration process was videotaped for subsequent data analysis to calculate the pipette bore size, the steady state pressure required to aspirate a segment of a cell into the pipette bore and the time constant for aspiration. Cytoskeleton change was monitored by rhodamine-phalloidin staining. The expression levels of β-actin was determined by quantitative RT-PCR. Total RNA was extracted with an RNeasy mini kit (QIAGen), cDNA was synthesized with SuperScriptII (Invitrogen) and quantitative PCR was carried out using 18S rRNA as an internal control (Ambion). The PCR products were separated on 2% agarose gels and pixel intensity of the bands was quantitated in Photoshop.

β-actin [4] = experiment: β-actin expression by quantitative RT-PCR; assay type: cell-based, human; conditions: 100 pM IL-1β; for reduction of β-actin message: 24 h post addition
Protocol: as §2, with “On day 5, cells were collected for cell modulus measurement and gene expression analysis.” left out

β-actin [5] = experiment: Cytoskeleton change by rhodamine-phalloidin staining; assay type: cell-based, human; conditions: 100 pM IL-1β
[6] = test system: human tendon internal fibroblast (HTIF) populated bioartificial tendons (BATs™); experiment: Material properties (modulus) of BATs; assay type: cell-based; conditions: IL-1β treated BATs
cell modulus = conditions: Wu, H. W. et al., Scanning, 1998; cited from earlier work

## Nc1ncnc2c1ncn2[C@@H]1O[C@H](COP(=O)(O)OP(=O)(O)OP(=O)(O)O)[C@@H](O)[C@H]1O [ATP, adenosine triphosphate]
Gel matrix
  gel matrix contraction: retard gel matrix contraction

## GRGDTP
elastin; 100 μg/ml GRGDTP with 100 pM IL-1β
  stimulation of elastin mRNA by IL-1β: reduced its stimulation by IL-1β
elastin; 100 μg/ml GRGDTP, without IL-1β
  elastin mRNA level: did not affect

## interleukin-1beta [IL-1β]
[1]
  contraction of BATs: reduced the contraction
[2]; 20% elongation, 1 Hz for 1 h, day 5
  survival of maximum stretch: survived the maximum stretch
[2]; after maximum stretch (20% elongation, 1 Hz, 1 h)
  time for elongated BATs to recover to original length post stretch: 8 h
[2]; tested on day 5
  elasticity of BATs: increased the elasticity
Collagen I
  expression of Collagen I: down-regulated
MMPs 1, 2, 3
  expression of MMPs 1, 2, 3: up-regulated
elastin; 100 pM IL-1β, BATs, day 5
  expression of elastin: up-regulated
[3]; HTIFs from patient one
  reduction of cell modulus: 62%
[3]; HTIFs from patient two
  reduction of cell modulus: 45%
β-actin [4]; 2D cultures
  reduction of β-actin message: more than 50%
β-actin [4]; 3D cultures (BATs)
  reduction of β-actin message: more than 50%
β-actin [4]; 3D cultures, day 3
  message level of β-actin: returned to normal
β-actin [5]; 2D cultures
  cells with disrupted cytoskeletal structure: about 20%
β-actin [5]; 2D cultures, day 5
  protein level of β-actin: mostly recovered
β-actin [5]; 3D bioartificial tendons, day 5
  fluorescence intensity of rhodamine-phalloidin staining compared to control: much lower
β-actin [5]; BATs, days 1 and 3
  increase of intercellular space at the perpendicular direction of BATs: more than 100%
β-actin [5]; rhodamine-phalloidin staining
  protein level of β-actin: down regulated
[6]
  modulus of BATs: reduced the modulus

## C=C1[C@@H](C)[C@H]2[C@H](Cc3ccccc3)NC(=O)[C@]23[C@H](OC(C)=O)/C=C/[C@@](C)(O)C(=O)[C@@H](C)C/C=C/[C@H]3[C@@H]1O [cytochalasin D]
Cell modulus
  cell modulus: decreased cell modulus by up to three fold
